Measured values from PubChem BioAssay (NCI).
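Test compounds were applied to cells in 96-well plates for 48 hours at 5 doses. GI50 marks 50% less growth. TGI is the concentration that stops growth completely.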

Tests used:
Experiment in all cases: DTP human tumour cell line panel, 48 h
LOX IMVI melanoma = test system: LOX IMVI melanoma
MOLT-4 leukemia = test system: MOLT-4 leukemia
MCF7 breast = test system: MCF7 breast
HT29 colon = test system: HT29 colon
RPMI-8226 leukemia = test system: RPMI-8226 leukemia
A549 NSCLC = test system: A549 NSCLC
NCI/ADR-RES ovarian = test system: NCI/ADR-RES ovarian
EKVX NSCLC = test system: EKVX NSCLC
HCC-2998 colon = test system: HCC-2998 colon
HCT-116 colon = test system: HCT-116 colon

N=C(N)c1ccc(NCCOCCNc2ccc(C(=N)N)cc2)cc1
GI50 (LOX IMVI melanoma): > 100 µM
TGI (LOX IMVI melanoma): > 100 µM
GI50 (MOLT-4 leukemia): > 100 µM
TGI (MOLT-4 leukemia): > 100 µM
GI50 (MCF7 breast): 16 µM
TGI (MCF7 breast): > 100 µM
GI50 (HT29 colon): 29.5 µM
TGI (HT29 colon): > 100 µM
GI50 (RPMI-8226 leukemia): 22 µM
TGI (RPMI-8226 leukemia): > 100 µM
GI50 (A549 NSCLC): 14.4 µM
TGI (A549 NSCLC): > 100 µM
GI50 (NCI/ADR-RES ovarian): 78.5 µM
TGI (NCI/ADR-RES ovarian): > 100 µM
GI50 (EKVX NSCLC): 21.7 µM
TGI (EKVX NSCLC): > 100 µM
GI50 (HCC-2998 colon): 41.9 µM
TGI (HCC-2998 colon): > 100 µM
GI50 (HCT-116 colon): 49.4 µM
TGI (HCT-116 colon): > 100 µM

Cc1cc2nc3cc(C)c(N)cc3[n+](-c3ccccc3)c2cc1N
GI50 (LOX IMVI melanoma): 4.78 µM
TGI (LOX IMVI melanoma): > 100 µM
GI50 (MOLT-4 leukemia): 6.5 µM
TGI (MOLT-4 leukemia): > 100 µM
GI50 (MCF7 breast): 2.48 µM
TGI (MCF7 breast): > 100 µM
GI50 (HT29 colon): 7.3 µM
TGI (HT29 colon): > 100 µM
GI50 (RPMI-8226 leukemia): 4.25 µM
TGI (RPMI-8226 leukemia): > 100 µM
GI50 (A549 NSCLC): 14.6 µM
TGI (A549 NSCLC): > 100 µM
GI50 (NCI/ADR-RES ovarian): > 100 µM
TGI (NCI/ADR-RES ovarian): > 100 µM
GI50 (EKVX NSCLC): 2.48 µM
TGI (EKVX NSCLC): > 100 µM
GI50 (HCC-2998 colon): 4.05 µM
TGI (HCC-2998 colon): > 46 µM
GI50 (HCT-116 colon): 3.64 µM
TGI (HCT-116 colon): 41.4 µM

CCC(=O)Nc1ccccc1C#C/C=C\C#Cc1ccccc1C(F)(F)F
GI50 (LOX IMVI melanoma): 5.14 µM
TGI (LOX IMVI melanoma): > 50 µM
GI50 (MOLT-4 leukemia): 4.11 µM
TGI (MOLT-4 leukemia): > 23.3 µM
GI50 (MCF7 breast): 2.61 µM
TGI (MCF7 breast): > 36.1 µM
GI50 (HT29 colon): 5.94 µM
TGI (HT29 colon): > 50 µM
GI50 (RPMI-8226 leukemia): 4.25 µM
TGI (RPMI-8226 leukemia): > 50 µM
GI50 (A549 NSCLC): 2.53 µM
TGI (A549 NSCLC): > 32.6 µM
GI50 (NCI/ADR-RES ovarian): 1.48 µM
TGI (NCI/ADR-RES ovarian): 9.95 µM
GI50 (EKVX NSCLC): 1.06 µM
TGI (EKVX NSCLC): 25.2 µM
GI50 (HCC-2998 colon): 4.19 µM
TGI (HCC-2998 colon): 14.9 µM
GI50 (HCT-116 colon): 2.81 µM
TGI (HCT-116 colon): 25.8 µM

Cc1ccc(C2=C(c3ccc(C)cc3)C3(c4ccc(C)cc4)C4C(=O)c5ccccc5C(=O)C4C2(c2ccc(C)cc2)S3=O)cc1 (stereo not given)
GI50 (LOX IMVI melanoma): > 100 µM
TGI (LOX IMVI melanoma): > 100 µM
GI50 (MOLT-4 leukemia): > 100 µM
TGI (MOLT-4 leukemia): > 100 µM
GI50 (MCF7 breast): > 100 µM
TGI (MCF7 breast): > 100 µM
GI50 (HT29 colon): > 100 µM
TGI (HT29 colon): > 100 µM
GI50 (RPMI-8226 leukemia): > 100 µM
TGI (RPMI-8226 leukemia): > 100 µM
GI50 (A549 NSCLC): > 100 µM
TGI (A549 NSCLC): > 100 µM
GI50 (NCI/ADR-RES ovarian): > 100 µM
TGI (NCI/ADR-RES ovarian): > 100 µM
GI50 (EKVX NSCLC): > 100 µM
TGI (EKVX NSCLC): > 100 µM
GI50 (HCC-2998 colon): > 100 µM
TGI (HCC-2998 colon): > 100 µM
GI50 (HCT-116 colon): > 100 µM
TGI (HCT-116 colon): > 100 µM

COC(=O)C(CBr)CBr
TGI (LOX IMVI melanoma): 7.75 µM
TGI (MOLT-4 leukemia): 16.4 µM
TGI (MCF7 breast): 20.6 µM
TGI (HT29 colon): 11 µM
TGI (RPMI-8226 leukemia): 3.97 µM
TGI (A549 NSCLC): 36.3 µM
TGI (NCI/ADR-RES ovarian): 8.45 µM
TGI (EKVX NSCLC): 21.5 µM
TGI (HCC-2998 colon): 10.9 µM
TGI (HCT-116 colon): 11.5 µM

CCCCNC(=O)c1cc(NCc2cc(O)ccc2O)ccc1O
GI50 (LOX IMVI melanoma): 14.7 µM
TGI (LOX IMVI melanoma): 29.2 µM
GI50 (MOLT-4 leukemia): 4.02 µM
TGI (MOLT-4 leukemia): 44.4 µM
GI50 (MCF7 breast): 12.4 µM
TGI (MCF7 breast): 39.8 µM
GI50 (HT29 colon): 21.5 µM
TGI (HT29 colon): 46.8 µM
GI50 (RPMI-8226 leukemia): 1.76 µM
TGI (RPMI-8226 leukemia): 7.85 µM
GI50 (A549 NSCLC): 21.9 µM
TGI (A549 NSCLC): 48.2 µM
GI50 (NCI/ADR-RES ovarian): 25 µM
TGI (NCI/ADR-RES ovarian): > 100 µM
GI50 (EKVX NSCLC): 13.4 µM
TGI (EKVX NSCLC): 28.1 µM
GI50 (HCC-2998 colon): 17.6 µM
TGI (HCC-2998 colon): 35.5 µM
GI50 (HCT-116 colon): 18.8 µM
TGI (HCT-116 colon): 37.5 µM

Nc1nc(N)c2c(n1)NC(c1ccccc1)C1CCc3ccccc3C1=N2 (stereo not given)
GI50 (LOX IMVI melanoma): 3.79 µM
TGI (LOX IMVI melanoma): 15.1 µM
GI50 (MOLT-4 leukemia): 2.7 µM
TGI (MOLT-4 leukemia): 14.7 µM
GI50 (MCF7 breast): 3.25 µM
TGI (MCF7 breast): 13.5 µM
GI50 (HT29 colon): 3.66 µM
TGI (HT29 colon): 14.4 µM
GI50 (RPMI-8226 leukemia): 3.21 µM
TGI (RPMI-8226 leukemia): 87.1 µM
GI50 (A549 NSCLC): 7.11 µM
TGI (A549 NSCLC): 26 µM
GI50 (NCI/ADR-RES ovarian): 3.13 µM
TGI (NCI/ADR-RES ovarian): 13.6 µM
GI50 (EKVX NSCLC): 2.68 µM
TGI (EKVX NSCLC): 15.1 µM
GI50 (HCC-2998 colon): 3.82 µM
TGI (HCC-2998 colon): 15.6 µM
GI50 (HCT-116 colon): 2.97 µM
TGI (HCT-116 colon): 12.7 µM

Cn1c2ccccc2c2c3[nH][nH]c(=O)c3c3c4ccccc4[nH]c3c21
GI50 (LOX IMVI melanoma): 1.09 µM
TGI (LOX IMVI melanoma): 6.62 µM
GI50 (MOLT-4 leukemia): 1.89 µM
TGI (MOLT-4 leukemia): 5.55 µM
GI50 (MCF7 breast): 1.63 µM
TGI (MCF7 breast): 10.4 µM
GI50 (HT29 colon): 3.13 µM
TGI (HT29 colon): 50.8 µM
GI50 (RPMI-8226 leukemia): 2.96 µM
TGI (RPMI-8226 leukemia): 9.2 µM
GI50 (A549 NSCLC): 3.22 µM
TGI (A549 NSCLC): 16.8 µM
GI50 (NCI/ADR-RES ovarian): 4.02 µM
TGI (NCI/ADR-RES ovarian): 37.5 µM
GI50 (EKVX NSCLC): 2.41 µM
TGI (EKVX NSCLC): 8.1 µM
GI50 (HCC-2998 colon): 2.74 µM
TGI (HCC-2998 colon): 8.1 µM
GI50 (HCT-116 colon): 1.32 µM
TGI (HCT-116 colon): 92.5 µM

COc1cc2ncnc(Nc3ccc4c(cnn4Cc4ccccc4)c3)c2cc1OC
GI50 (LOX IMVI melanoma): > 19.4 µM
TGI (LOX IMVI melanoma): > 25 µM
GI50 (MOLT-4 leukemia): 13.5 µM
TGI (MOLT-4 leukemia): > 25 µM
GI50 (MCF7 breast): > 25 µM
TGI (MCF7 breast): > 25 µM
GI50 (HT29 colon): 8.77 µM
TGI (HT29 colon): > 25 µM
GI50 (RPMI-8226 leukemia): 11.2 µM
TGI (RPMI-8226 leukemia): > 25 µM
GI50 (A549 NSCLC): > 17.9 µM
TGI (A549 NSCLC): > 25 µM
GI50 (NCI/ADR-RES ovarian): > 19.5 µM
TGI (NCI/ADR-RES ovarian): > 25 µM
GI50 (EKVX NSCLC): 0.0796 µM
TGI (EKVX NSCLC): > 25 µM
GI50 (HCC-2998 colon): > 25 µM
TGI (HCC-2998 colon): > 25 µM
GI50 (HCT-116 colon): > 21.3 µM
TGI (HCT-116 colon): > 25 µM

N#Cc1c(N)nc(N)nc1N[C@H](c1nc2c(F)ccc(Cl)c2c(=O)n1-c1cccnc1)C1CC1
GI50 (LOX IMVI melanoma): 5.51 µM
TGI (LOX IMVI melanoma): 20.1 µM
GI50 (MOLT-4 leukemia): 3.33 µM
TGI (MOLT-4 leukemia): 28.8 µM
GI50 (MCF7 breast): 2.04 µM
TGI (MCF7 breast): > 100 µM
GI50 (HT29 colon): 4.53 µM
TGI (HT29 colon): 25.8 µM
GI50 (RPMI-8226 leukemia): 19 µM
TGI (RPMI-8226 leukemia): 46.4 µM
GI50 (A549 NSCLC): 6.22 µM
TGI (A549 NSCLC): 21.2 µM
GI50 (NCI/ADR-RES ovarian): 28.5 µM
TGI (NCI/ADR-RES ovarian): > 100 µM
GI50 (EKVX NSCLC): 1.88 µM
TGI (EKVX NSCLC): 37.2 µM
GI50 (HCC-2998 colon): 12.7 µM
TGI (HCC-2998 colon): 28.4 µM
GI50 (HCT-116 colon): 11.6 µM
TGI (HCT-116 colon): 27.3 µM

C[n+]1c(-c2ccc(/C=N/NC(=O)c3ccc(C(=O)N/N=C/c4ccc(-c5cn6ccccc6[n+]5C)cc4)cc3)cc2)cn2ccccc21
GI50 (LOX IMVI melanoma): 846 µM
TGI (LOX IMVI melanoma): > 1000 µM
GI50 (MOLT-4 leukemia): 135 µM
TGI (MOLT-4 leukemia): 292 µM
GI50 (MCF7 breast): 343 µM
TGI (MCF7 breast): > 1000 µM
GI50 (HT29 colon): 137 µM
TGI (HT29 colon): 266 µM
GI50 (RPMI-8226 leukemia): 121 µM
TGI (RPMI-8226 leukemia): 306 µM
GI50 (A549 NSCLC): 176 µM
TGI (A549 NSCLC): 314 µM
GI50 (NCI/ADR-RES ovarian): 553 µM
TGI (NCI/ADR-RES ovarian): > 1000 µM
GI50 (EKVX NSCLC): > 1000 µM
TGI (EKVX NSCLC): > 1000 µM
GI50 (HCC-2998 colon): 577 µM
TGI (HCC-2998 colon): > 1000 µM
GI50 (HCT-116 colon): > 1000 µM
TGI (HCT-116 colon): > 1000 µM

C/C=C/[C@H]1O[C@@H]2C(=C[C@H]1O)C(=O)O[C@H]2C
GI50 (LOX IMVI melanoma): 15 µM
TGI (LOX IMVI melanoma): 31.5 µM
GI50 (MOLT-4 leukemia): 2.77 µM
TGI (MOLT-4 leukemia): 10.5 µM
GI50 (MCF7 breast): 31.2 µM
TGI (MCF7 breast): 98 µM
GI50 (HT29 colon): 2.19 µM
TGI (HT29 colon): 27.4 µM
GI50 (RPMI-8226 leukemia): 2.74 µM
TGI (RPMI-8226 leukemia): 8.85 µM
GI50 (A549 NSCLC): 19 µM
TGI (A549 NSCLC): 42.3 µM
GI50 (NCI/ADR-RES ovarian): 26 µM
TGI (NCI/ADR-RES ovarian): > 57 µM
GI50 (EKVX NSCLC): 13.4 µM
TGI (EKVX NSCLC): 30.8 µM
GI50 (HCC-2998 colon): 27.9 µM
TGI (HCC-2998 colon): 55.9 µM
GI50 (HCT-116 colon): 4.19 µM
TGI (HCT-116 colon): 16.7 µM
